Experimental data published in ChEMBL document CHEMBL5291721, “A preclinical secondary pharmacology resource illuminates target-adverse drug reaction associations of marketed drugs” (Nat Commun, 2023).

Experiments:
Mu-type opioid receptor = Mu-type opioid receptor (Homo sapiens, UniProt P35372)
Progesterone receptor = molecular target: T1, Progesterone receptor (Homo sapiens, UniProt P06401)
T1 sequence (P06401 whole entry): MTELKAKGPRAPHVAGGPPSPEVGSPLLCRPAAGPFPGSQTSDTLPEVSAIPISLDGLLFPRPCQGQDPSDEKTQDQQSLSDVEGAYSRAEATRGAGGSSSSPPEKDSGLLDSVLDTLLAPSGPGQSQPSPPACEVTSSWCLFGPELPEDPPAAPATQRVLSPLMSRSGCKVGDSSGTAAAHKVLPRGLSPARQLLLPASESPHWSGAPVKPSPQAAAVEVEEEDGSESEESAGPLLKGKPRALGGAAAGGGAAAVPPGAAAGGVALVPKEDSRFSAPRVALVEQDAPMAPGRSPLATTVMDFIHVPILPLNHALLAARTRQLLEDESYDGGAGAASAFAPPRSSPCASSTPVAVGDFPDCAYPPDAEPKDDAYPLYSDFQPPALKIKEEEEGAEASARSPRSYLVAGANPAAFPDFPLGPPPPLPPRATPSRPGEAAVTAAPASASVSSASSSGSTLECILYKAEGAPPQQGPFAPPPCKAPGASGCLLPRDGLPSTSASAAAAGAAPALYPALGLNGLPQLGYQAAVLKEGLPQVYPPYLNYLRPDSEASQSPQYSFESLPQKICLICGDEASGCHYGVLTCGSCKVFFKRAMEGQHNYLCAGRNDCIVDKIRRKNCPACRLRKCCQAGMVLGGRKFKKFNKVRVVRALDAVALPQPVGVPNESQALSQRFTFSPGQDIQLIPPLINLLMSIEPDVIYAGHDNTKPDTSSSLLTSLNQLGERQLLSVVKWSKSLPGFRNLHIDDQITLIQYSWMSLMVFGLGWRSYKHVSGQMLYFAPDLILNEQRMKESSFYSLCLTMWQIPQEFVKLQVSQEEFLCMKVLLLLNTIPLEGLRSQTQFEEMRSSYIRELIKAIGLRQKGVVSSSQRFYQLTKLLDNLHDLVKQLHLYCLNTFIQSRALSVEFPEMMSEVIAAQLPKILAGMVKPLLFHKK

[1] = molecular target: T2, Alpha-1A adrenergic receptor (Homo sapiens, UniProt P35348); type: functional, cell-based
T2 sequence (P35348 whole entry): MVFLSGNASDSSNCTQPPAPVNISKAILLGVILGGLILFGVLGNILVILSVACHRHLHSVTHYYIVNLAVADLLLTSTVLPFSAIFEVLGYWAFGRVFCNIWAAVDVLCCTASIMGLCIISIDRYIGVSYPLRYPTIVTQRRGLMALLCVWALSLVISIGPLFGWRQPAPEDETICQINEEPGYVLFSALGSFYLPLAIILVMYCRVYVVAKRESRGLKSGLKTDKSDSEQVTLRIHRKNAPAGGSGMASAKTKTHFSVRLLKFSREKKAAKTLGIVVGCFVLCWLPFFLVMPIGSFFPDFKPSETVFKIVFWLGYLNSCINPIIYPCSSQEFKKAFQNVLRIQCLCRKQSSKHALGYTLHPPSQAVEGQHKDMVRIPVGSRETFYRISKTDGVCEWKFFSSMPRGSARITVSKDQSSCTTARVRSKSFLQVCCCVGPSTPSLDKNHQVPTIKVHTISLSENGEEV

Histamine H3 receptor = Histamine H3 receptor (Homo sapiens, UniProt Q9Y5N1)
Thromboxane A2 receptor = molecular target: T3, Thromboxane A2 receptor (Homo sapiens, UniProt P21731); type: functional, cell-based
T3 sequence (P21731 whole entry): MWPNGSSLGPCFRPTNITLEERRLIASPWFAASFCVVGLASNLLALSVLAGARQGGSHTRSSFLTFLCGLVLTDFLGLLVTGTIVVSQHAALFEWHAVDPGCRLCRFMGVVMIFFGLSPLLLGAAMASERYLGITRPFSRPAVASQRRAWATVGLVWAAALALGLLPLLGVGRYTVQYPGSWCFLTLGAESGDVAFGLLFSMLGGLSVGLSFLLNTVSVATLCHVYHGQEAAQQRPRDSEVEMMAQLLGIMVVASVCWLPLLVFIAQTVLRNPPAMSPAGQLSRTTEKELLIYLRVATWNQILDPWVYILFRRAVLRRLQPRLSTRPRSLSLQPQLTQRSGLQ

[2] = molecular target: T2, Alpha-1A adrenergic receptor; type: functional, cell-based; remark: listed apart in the source
Estrogen receptor = molecular target: T4, Estrogen receptor (Homo sapiens, UniProt P03372)
T4 sequence (P03372 whole entry): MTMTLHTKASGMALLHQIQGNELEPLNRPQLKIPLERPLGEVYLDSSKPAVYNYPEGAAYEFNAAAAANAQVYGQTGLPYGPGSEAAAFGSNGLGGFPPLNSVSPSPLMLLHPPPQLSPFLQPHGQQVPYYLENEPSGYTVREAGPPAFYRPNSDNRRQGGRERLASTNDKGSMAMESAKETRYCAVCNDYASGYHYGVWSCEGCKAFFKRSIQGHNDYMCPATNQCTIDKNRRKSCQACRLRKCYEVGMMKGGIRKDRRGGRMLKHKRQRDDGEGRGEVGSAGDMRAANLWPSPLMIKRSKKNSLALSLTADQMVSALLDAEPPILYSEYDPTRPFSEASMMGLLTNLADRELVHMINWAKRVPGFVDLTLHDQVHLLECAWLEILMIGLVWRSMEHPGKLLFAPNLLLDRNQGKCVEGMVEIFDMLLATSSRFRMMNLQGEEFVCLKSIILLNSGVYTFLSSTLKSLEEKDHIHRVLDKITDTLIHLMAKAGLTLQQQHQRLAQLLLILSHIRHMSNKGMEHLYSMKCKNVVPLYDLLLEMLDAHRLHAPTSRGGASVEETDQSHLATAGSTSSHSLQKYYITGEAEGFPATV

[3] = molecular target: 5-hydroxytryptamine receptor 2B (Homo sapiens, UniProt P41595); type: functional, cell-based
[4] = molecular target: Sodium-dependent dopamine transporter (Homo sapiens, UniProt Q01959)
Adenosine receptor A3 = molecular target: T5, Adenosine receptor A3 (Homo sapiens, UniProt P0DMS8)
T5 sequence (P0DMS8 whole entry): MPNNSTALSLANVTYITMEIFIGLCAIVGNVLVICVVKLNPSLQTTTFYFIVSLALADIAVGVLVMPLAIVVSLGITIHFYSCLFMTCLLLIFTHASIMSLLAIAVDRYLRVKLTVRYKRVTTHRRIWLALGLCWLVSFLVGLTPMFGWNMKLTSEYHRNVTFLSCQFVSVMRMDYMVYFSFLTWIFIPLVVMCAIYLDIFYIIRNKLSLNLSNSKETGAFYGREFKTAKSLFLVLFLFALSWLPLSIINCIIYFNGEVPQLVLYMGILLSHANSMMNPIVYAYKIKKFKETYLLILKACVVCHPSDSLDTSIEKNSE
Also: assay procedure not described here.

Chain of Histamine H3 receptor (Q9Y5N1 whole entry): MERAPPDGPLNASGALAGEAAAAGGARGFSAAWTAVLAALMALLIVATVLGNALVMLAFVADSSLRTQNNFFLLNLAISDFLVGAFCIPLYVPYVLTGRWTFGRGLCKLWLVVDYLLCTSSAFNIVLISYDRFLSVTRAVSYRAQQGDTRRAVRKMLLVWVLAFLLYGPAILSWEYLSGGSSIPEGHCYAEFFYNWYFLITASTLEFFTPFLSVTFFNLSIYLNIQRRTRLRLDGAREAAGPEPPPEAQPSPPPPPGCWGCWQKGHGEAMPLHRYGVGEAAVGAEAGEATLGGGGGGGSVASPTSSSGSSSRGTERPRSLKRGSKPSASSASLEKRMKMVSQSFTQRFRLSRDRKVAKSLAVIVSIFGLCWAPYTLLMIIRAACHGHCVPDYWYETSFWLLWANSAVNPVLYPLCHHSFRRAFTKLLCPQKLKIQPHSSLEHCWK
Chain of Sodium-dependent dopamine transporter (Q01959 whole entry): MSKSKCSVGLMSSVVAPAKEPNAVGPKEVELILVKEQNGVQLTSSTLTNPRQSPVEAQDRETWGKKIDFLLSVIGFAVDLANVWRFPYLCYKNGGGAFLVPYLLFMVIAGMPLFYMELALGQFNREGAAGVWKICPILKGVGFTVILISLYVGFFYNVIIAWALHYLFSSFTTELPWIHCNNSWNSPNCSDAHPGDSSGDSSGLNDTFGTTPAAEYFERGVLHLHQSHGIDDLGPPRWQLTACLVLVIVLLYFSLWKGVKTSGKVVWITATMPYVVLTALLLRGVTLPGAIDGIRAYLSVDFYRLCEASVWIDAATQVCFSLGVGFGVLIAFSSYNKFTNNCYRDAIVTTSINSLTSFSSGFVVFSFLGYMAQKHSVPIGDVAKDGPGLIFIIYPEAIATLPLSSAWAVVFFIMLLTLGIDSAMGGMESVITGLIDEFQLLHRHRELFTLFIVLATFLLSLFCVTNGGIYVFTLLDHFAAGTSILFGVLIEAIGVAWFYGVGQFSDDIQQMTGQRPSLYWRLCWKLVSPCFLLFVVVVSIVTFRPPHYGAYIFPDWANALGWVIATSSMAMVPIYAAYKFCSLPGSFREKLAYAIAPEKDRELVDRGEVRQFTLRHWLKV
Chain of Mu-type opioid receptor (P35372 whole entry): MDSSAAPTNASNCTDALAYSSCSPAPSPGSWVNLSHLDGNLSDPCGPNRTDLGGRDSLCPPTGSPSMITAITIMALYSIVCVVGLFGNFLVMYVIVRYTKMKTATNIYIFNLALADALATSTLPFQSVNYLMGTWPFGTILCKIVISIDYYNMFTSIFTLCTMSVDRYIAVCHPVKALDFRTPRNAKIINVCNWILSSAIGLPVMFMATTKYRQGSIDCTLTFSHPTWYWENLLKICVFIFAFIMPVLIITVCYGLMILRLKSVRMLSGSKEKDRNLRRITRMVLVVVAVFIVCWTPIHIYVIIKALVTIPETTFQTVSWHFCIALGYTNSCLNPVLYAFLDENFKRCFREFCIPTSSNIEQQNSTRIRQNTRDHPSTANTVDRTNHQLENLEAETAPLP
Chain of 5-hydroxytryptamine receptor 2B (P41595 whole entry): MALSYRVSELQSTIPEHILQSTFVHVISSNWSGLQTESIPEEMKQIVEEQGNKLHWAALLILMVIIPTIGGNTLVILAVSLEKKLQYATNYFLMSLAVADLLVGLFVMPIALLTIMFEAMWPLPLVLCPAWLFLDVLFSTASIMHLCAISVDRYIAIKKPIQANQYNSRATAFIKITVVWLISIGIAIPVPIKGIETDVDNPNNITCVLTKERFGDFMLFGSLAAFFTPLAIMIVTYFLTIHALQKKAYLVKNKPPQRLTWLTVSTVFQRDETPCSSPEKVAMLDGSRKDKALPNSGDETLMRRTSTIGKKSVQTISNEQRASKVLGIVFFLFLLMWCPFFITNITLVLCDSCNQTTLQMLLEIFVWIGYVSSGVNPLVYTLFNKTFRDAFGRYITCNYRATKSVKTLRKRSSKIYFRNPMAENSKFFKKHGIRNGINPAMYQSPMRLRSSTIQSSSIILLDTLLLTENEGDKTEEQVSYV

| Structure (SMILES) | AC50 (Mu-type opioid receptor) | AC50 (Progesterone receptor) | AC50 [1] | AC50 (Histamine H3 receptor) | AC50 (Thromboxane A2 receptor) | AC50 [2] | AC50 (Estrogen receptor) | AC50 [3] | AC50 [4] | AC50 (Adenosine receptor A3) |
| --- | --- | --- | --- | --- | --- | --- | --- | --- | --- | --- |
| COC(=O)N[C@H](C(=O)N1CC2(CC2)C[C@H]1c1ncc(-c2ccc3c(c2)C(F)(F)c2cc(-c4ccc5nc([C@@H]6[C@H]7CC[C@H](C7)N6C(=O)[C@@H](NC(=O)OC)C(C)C)[nH]c5c4)ccc2-3)[nH]1)C(C)C | > 30 µM | > 10 µM | > 30 µM | > 30 µM | > 30 µM | > 30 µM | > 30 µM | > 30 µM | > 30 µM | > 10 µM |
| O=C1Nc2ccccc2C1(c1ccc(O)cc1)c1ccc(O)cc1 [OXYPHENISATINE] | > 30 µM | > 30 µM | > 30 µM | > 30 µM | > 30 µM | > 30 µM | > 30 µM | > 30 µM | > 30 µM | 5.01 µM |
| COc1ncnc(NS(=O)(=O)c2ccc(N)cc2)c1OC [SULFADOXINE] | > 30 µM | > 30 µM | > 30 µM | > 30 µM | > 30 µM | > 30 µM | 22.7 µM | > 30 µM | > 30 µM | > 30 µM |
| CC(C)=CCC/C(C)=C/CC/C(C)=C/CC/C(C)=C/CC1=C(C)C(=O)c2ccccc2C1=O [MENATETRENONE] | > 30 µM | 13.5 µM | > 30 µM | > 30 µM | > 30 µM | > 30 µM | > 30 µM | > 30 µM | > 30 µM | 4.72 µM |
| Cc1cnc(C(=O)O)c[n+]1[O-] [ACIPIMOX] | > 30 µM | > 30 µM | > 30 µM | > 30 µM | > 30 µM | > 30 µM | > 30 µM | > 30 µM | > 30 µM | > 30 µM |
| CC(O)(CC(=O)O)CC(=O)O [MEGLUTOL] | > 30 µM | > 30 µM | > 30 µM | > 30 µM | 13.8 µM | 18 µM | > 30 µM | > 30 µM | > 30 µM | > 30 µM |
| CO[C@H]1/C=C/O[C@@]2(C)Oc3c(C)c(O)c4c(c3C2=O)C2=NC3(CCN(CC(C)C)CC3)NC2=C(NC(=O)/C(C)=C\C=C\[C@H](C)[C@H](O)[C@@H](C)[C@@H](O)[C@@H](C)[C@H](OC(C)=O)[C@@H]1C)C4=O [RIFABUTIN] | > 30 µM | > 30 µM | > 30 µM | > 30 µM | > 30 µM | > 30 µM | > 30 µM | > 30 µM | > 30 µM | > 30 µM |
| Cn1c(CCCC(=O)O)nc2cc(N(CCCl)CCCl)ccc21 [BENDAMUSTINE] | > 30 µM | > 30 µM | > 30 µM | > 30 µM | > 30 µM | > 30 µM | > 30 µM | > 30 µM | > 30 µM | > 30 µM |
| Cc1cn(-c2cc(NC(=O)c3ccc(C)c(Nc4nccc(-c5cnccn5)n4)c3)cc(C(F)(F)F)c2)cn1 [RADOTINIB] | > 3 µM | > 30 µM | > 30 µM | > 30 µM | > 30 µM | > 30 µM | > 30 µM | > 30 µM | > 30 µM | 0.298 µM |
| CC1(C)S[C@@H]2[C@H](NC(=O)[C@H](NC(=O)c3cnc4cccnc4c3O)c3ccccc3)C(=O)N2[C@H]1C(=O)O [APALCILLIN] | > 30 µM | > 30 µM | > 30 µM | > 30 µM | > 30 µM | > 30 µM | > 30 µM | > 30 µM | > 30 µM | 29 µM |
| COC(=O)N(C)c1c(N)nc(-c2nn(Cc3ccccc3F)c3ncccc23)nc1N [RIOCIGUAT] | > 30 µM | > 30 µM | > 30 µM | > 30 µM | > 30 µM | > 30 µM | > 30 µM | > 30 µM | > 30 µM | 13.9 µM |
| CNC(=O)c1cnn(-c2nc(N)c3ncn([C@@H]4O[C@H](CO)[C@@H](O)[C@H]4O)c3n2)c1 [REGADENOSON ANHYDROUS] | > 30 µM | > 30 µM | 28.2 µM | > 30 µM | > 30 µM | > 30 µM | > 30 µM | > 30 µM | > 30 µM | 0.481 µM |
| C[C@@H]1O[C@@H](O[C@H]2C[C@@H](O)[C@]3(CO)[C@H]4[C@H](O)C[C@]5(C)[C@@H](C6=CC(=O)OC6)CC[C@]5(O)[C@@H]4CC[C@]3(O)C2)[C@H](O)[C@H](O)[C@H]1O [OUABAIN] | > 30 µM | > 30 µM | > 30 µM | > 30 µM | > 30 µM | > 30 µM | > 30 µM | > 30 µM | > 30 µM | > 30 µM |
| CC(C)N1CCOC(c2cccc(C(F)(F)F)c2)C1 (stereo not given) [OXAFLOZANE] | > 30 µM | > 30 µM | > 30 µM | > 30 µM | > 30 µM | > 30 µM | > 30 µM | 1.01 µM | > 30 µM | > 30 µM |
